Our source for the SIRT1 activation, Kd and SIRT3 activation values is paper PMC10388363, “Novel 1,4-Dihydropyridines as Specific Binders and Activators of SIRT3 Impair Cell Viability and Clonogenicity and Downregulate Hypoxia-Induced Targets in Cancer Cells” (Journal of Medicinal Chemistry, 2023).

One may read the pKd as the Kd on a negative log10 scale, so that one unit is a factor of ten. Read a high pKd as a small Kd.

The structures appear in SMILES notation. pKd: −log10 of the molar value.

One experiment has as its target T1, human SIRT1 (Homo sapiens, UniProt Q96EB6).
T1 construct: using constructs in pET15b (Sirt1); His tag (N, cleaved yes); made in house; host or cells: Escherichia coli
T1 sequence (Q96EB6 1-747): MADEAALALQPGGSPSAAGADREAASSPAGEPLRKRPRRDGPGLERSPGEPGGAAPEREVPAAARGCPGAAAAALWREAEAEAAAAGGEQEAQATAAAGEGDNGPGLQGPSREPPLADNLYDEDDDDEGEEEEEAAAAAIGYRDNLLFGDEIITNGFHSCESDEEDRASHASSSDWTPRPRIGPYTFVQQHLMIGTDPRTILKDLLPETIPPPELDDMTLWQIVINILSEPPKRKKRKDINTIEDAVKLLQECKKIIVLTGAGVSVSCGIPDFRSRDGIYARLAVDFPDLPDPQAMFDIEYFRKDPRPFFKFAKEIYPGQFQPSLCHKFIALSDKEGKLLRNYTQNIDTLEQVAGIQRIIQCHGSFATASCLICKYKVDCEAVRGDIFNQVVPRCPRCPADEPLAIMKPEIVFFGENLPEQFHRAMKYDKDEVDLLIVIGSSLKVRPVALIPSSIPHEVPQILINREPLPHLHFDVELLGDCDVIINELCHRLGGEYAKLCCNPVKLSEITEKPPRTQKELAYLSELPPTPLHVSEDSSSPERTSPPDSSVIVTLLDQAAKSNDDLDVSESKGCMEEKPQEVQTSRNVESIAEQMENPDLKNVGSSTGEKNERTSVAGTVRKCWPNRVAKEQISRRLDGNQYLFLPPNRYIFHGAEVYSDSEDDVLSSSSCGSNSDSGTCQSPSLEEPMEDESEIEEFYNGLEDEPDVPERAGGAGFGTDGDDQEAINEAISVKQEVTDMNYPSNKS
More on the design: method as in PMID 36228194. As to conditions: 100 μM; cited from earlier work.

Experiment [1] deals with T2, human SIRT3 (Homo sapiens, UniProt Q9NTG7).
T2 construct: pET151D/Topo (Sirt3-114-380 and Sirt5-34-302); His tag (N, cleaved yes); made in house; host or cells: Escherichia coli
T2 sequence (Q9NTG7 114-380): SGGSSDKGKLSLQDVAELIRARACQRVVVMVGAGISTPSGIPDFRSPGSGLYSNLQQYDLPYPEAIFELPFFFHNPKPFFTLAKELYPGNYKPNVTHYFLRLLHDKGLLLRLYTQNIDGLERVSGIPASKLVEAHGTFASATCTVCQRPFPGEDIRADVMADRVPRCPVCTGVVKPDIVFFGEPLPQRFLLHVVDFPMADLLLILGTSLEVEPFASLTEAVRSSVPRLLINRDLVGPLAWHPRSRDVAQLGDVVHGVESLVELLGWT
In words: Surface plasmon resonance binding assay, immobilized SIRT3. To be noted: SPR, Scatchard analysis, analytes 5-80 μM. As to the method: Next, surface plasmon resonance (SPR) experiments were conducted with selected SIRT3 activators 2e and 3a–d to ascertain their biophysical interaction with the human SIRT3 protein. Their parental compounds 2 and 3, together with honokiol, were used as positive controls. The experiments were carried out twice at different concentrations (5, 10, 20, 40, and 80 μM), by injecting the compounds at increasing doses (Figure 5). The resonance units (RU) increase with respect to baseline indicates the formation of the SIRT3/ligand complex, the plateau region represents the steady-state phase of the interaction (RUeq, RU at equilibrium) and the decrease in RU after 180 s represents dissociation of analytes from the immobilized SIRT3 protein after injection of the buffer.
SPR experiments were carried out using a SensiQ Pioneer system (SensiQ, Oklahoma City, OK, USA), essentially as in Genovese et al. 2020[84] and in Battista et al. 2021,[85] with some modifications, as follows.
The sensor chip (COOH5) was chemically activated by a 35 μL injection of a 1:1 mixture of […] (200 mM) and N-hydroxysuccinimide (50 mM) at a flow rate of 5 μL/min. Sirtuin3 (ligand) was immobilized on activated sensor chips via amine coupling. Immobilization was carried out in 20 mM sodium acetate at pH 4.0; unreacted groups were blocked by injecting 1 M ethanolamine hydrochloride (35 μL). Sirtuin3 immobilization level obtained was 1500–4000 RU.
The analytes, dissolved in 100% DMSO at 10 mM concentration, were diluted in buffer 20 mM Hepes, 150 mM NaCl, 0.005% surfactant P20 buffer (HBSP) to a concentration of 200 μM (2% final DMSO concentration), further diluted in HBSP + 2% DMSO (HBSP2%D) and injected on the sensor chip at a constant flow rate (nominal flow rate = 30 μL/min) at the following concentrations: 5, 10, 20, 40, and 80 μM.
The RU increase relative to baseline indicates complex formation (taking place at known analytes concentrations at each moment in the gradient); the plateau region represents the steady-state phase of the interaction (RUeq); and the decrease in RU after 180 s represents dissociation of analytes from the immobilized Sirtiun3 after injection of HBSP2%D. Regeneration procedures are based on two long (2000 and 500 s) injections of buffer, separated by a brief (5 s) injection of 10 mM NaOH.
Control experiments were performed in sensor chips treated as described above in the absence of an immobilized ligand. Kinetic evaluation of the sensorgrams was obtained using the SensiQ Qdat program and full fitting with 1, 2, and 3 sites; Scatchard analysis was used to determine apparent KD values.
Background: In SPR one partner is held on a chip, and binding of the other changes the refractive index at the surface.

Experiment [2] has as its target T2, human SIRT3. More on the design: method as in PMID 36228194. As to conditions: 100 μM; cited from earlier work.

For `CCOC(=O)C1=CN(C(=O)c2ccccc2)C=C(C(=O)OCC)C1c1ccccc1` [Compound 2], the SIRT1 activation result at human SIRT1 was “below 200%”. The pKd at human SIRT3 [1] was 4.33 to 4.40. Moreover, at human SIRT3 [2], the SIRT3 activation entry is listed as “over 300%”.
